These results are taken from patent publication US20230140216A1, “COMBINATION THERAPY FOR TREATING MPS1” (GAIN THERAPEUTICS SA, priority 2020, published 2023).

The experiment concerns the target T1, Recombinant human α-L-iduronidase protein (Homo sapiens, UniProt P35475).
T1 construct: purchased R&D
T1 sequence (P35475 28-653): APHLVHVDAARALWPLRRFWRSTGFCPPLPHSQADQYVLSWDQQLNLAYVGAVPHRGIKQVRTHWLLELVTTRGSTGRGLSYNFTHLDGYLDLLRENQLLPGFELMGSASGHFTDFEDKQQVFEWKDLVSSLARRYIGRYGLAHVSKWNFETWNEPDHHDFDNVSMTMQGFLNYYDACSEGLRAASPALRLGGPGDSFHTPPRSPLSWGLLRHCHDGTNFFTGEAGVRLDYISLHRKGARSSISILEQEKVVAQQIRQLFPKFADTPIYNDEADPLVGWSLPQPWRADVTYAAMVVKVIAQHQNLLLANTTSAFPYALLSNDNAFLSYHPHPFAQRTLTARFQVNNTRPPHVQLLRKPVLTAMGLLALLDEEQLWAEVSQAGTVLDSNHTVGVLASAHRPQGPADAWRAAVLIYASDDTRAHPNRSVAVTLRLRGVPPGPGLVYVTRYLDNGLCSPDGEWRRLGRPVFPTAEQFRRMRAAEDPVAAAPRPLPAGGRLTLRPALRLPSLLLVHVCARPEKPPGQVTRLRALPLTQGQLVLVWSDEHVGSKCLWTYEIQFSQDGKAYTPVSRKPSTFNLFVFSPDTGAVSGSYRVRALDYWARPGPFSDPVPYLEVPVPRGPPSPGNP
Kind of experiment: Differential scanning fluorimetry (DSF) thermal stabilization.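 Further: Classes count stabilization of α-L-iduronidase despite the GALC label.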 Type of experiment: binding. The settings on record: synthetized Examples 38-94; ΔTm class. How it is done: The capacity of Compounds of the Disclosure to stabilize α-L-iduronidase was assessed by differential scanning fluorimetry technique. The thermal denaturation of purified human native enzyme was monitored in the presence of the extrinsic fluorescent probe SYPRO Orange (Sigma-Aldrich, St. Louis, MO). The tested compounds were dissolved in 100% DMSO and diluted into the protein buffer to achieve final concentrations of 1% DMSO.
Recombinant human α-L-iduronidase protein (purchased from R&D) 12.5 µL of 1.5 µM in 100 mM Hepes 20 mM MgCl2 pH 7 (protein final concentration 0.75 µM) with Sypro Orange 10X and 12.5 µl of the different compound solutions were dispensed into 96-well PCR-plates. The intensity of SYPRO Orange fluorescence after a systematic increase of temperature was monitored in the Roche LightCycler® 480 II device (Roche Diagnostics).
The capacity to stabilize α-L-iduronidase is denoted as follows: • ΔTm GALC > 1 is shown as A; • ΔTm GALC between 0.5 and 1 is shown as B; • ΔTm GALC between 0.1 and 0.5 is shown as C; and • ΔTm GALC less than 0.1 is shown as D.
As to `CN(C(=O)CN(Cc1nc2cc(F)ccc2c(=O)[nH]1)C1CC1)c1ccccc1Cl` [Example 65], the “DSF Activity range” value was “D (ΔTm GALC less than 0.1 is shown as D)”. Turning to `Cc1ccc2nc(CN(C)CC(=O)N(C)c3ccccc3Cl)[nH]c(=O)c2c1` [Example 66], the “DSF Activity range” value is “B (ΔTm GALC between 0.5 and 1 is shown as B)”. For `CCN(CC(=O)N(C)c1nc(C)cs1)Cc1nc2ccc(F)cc2c(=O)[nH]1` [Example 67, 2-(ethyl((6-fluoro-4-oxo-3,4-dihydroquinazolin-2-yl)methyl)amino)-N-methyl-N-(4-methylthiazol-2-yl)acetamide], the “DSF Activity range” value is “B (ΔTm GALC between 0.5 and 1 is shown as B)”. Regarding `Cc1csc(N(C)C(=O)CN(C)Cc2nc3cc(F)ccc3c(=O)[nH]2)n1` [Example 68], the “DSF Activity range” value is “C (ΔTm GALC between 0.1 and 0.5 is shown as C)”. The same measure for `CCN(CC(=O)N(C)c1c(Cl)cccc1Cl)Cc1nc2ccc(F)cc2c(=O)[nH]1` [Example 69, 2-(N-ethyl-N-((6-fluoro-3,4-dihydro-4-oxoquinazolin-2-yl)methyl)amino)-N-(2,6-dichlorophenyl)-N-methylacetamide]: “C (ΔTm GALC between 0.1 and 0.5 is shown as C)”. As to `Cc1ccc2c(=O)[nH]c(CN(C)CC(=O)N(C)c3ccccc3Cl)nc2c1` [Example 70, 2-(N-((3,4-dihydro-7-methyl-4-oxoquinazolin-2-yl)methyl)-N-methylamino)-N-(2-chlorophenyl)-N-methylacetamide], the “DSF Activity range” value was “B (ΔTm GALC between 0.5 and 1 is shown as B)”. In the case of `CN(CC(=O)N1Cc2ccccc2C1)Cc1nc2cc(F)ccc2c(=O)[nH]1` [Example 71, 7-fluoro-2-(((2-(isoindolin-2-yl)-2-oxoethyl)(methyl)amino)methyl)quinazolin-4(3H)-one], the “DSF Activity range” value is listed as “A (ΔTm GALC > 1 is shown as A)”.

As for `CCN(CC(=O)N(C)c1c(Cl)cccc1Cl)Cc1nc2cc(F)ccc2c(=O)[nH]1` [Example 73, 2-(N-ethyl-N-((7-fluoro-3,4-dihydro-4-oxoquinazolin-2-yl)methyl)amino)-N-(2,6-dichlorophenyl)-N-methylacetamide], the “DSF Activity range” value was “C (ΔTm GALC between 0.1 and 0.5 is shown as C)”.

`CN(CC(=O)N(C)c1cccc(F)c1)Cc1nc2ccc(F)cc2c(=O)[nH]1` [Example 74]: the “DSF Activity range” value is “B (ΔTm GALC between 0.5 and 1 is shown as B)”. Consider `CN(CC(=O)N(C)c1ccc(Cl)c(Cl)c1)Cc1nc2cc(F)ccc2c(=O)[nH]1` [Example 75], for which the “DSF Activity range” value is “B (ΔTm GALC between 0.5 and 1 is shown as B)”.

On to `CCCN(CC(=O)N(C)c1ccccc1Cl)Cc1nc2cc(F)ccc2c(=O)[nH]1` [Example 76], for which the “DSF Activity range” value is reported as “D (ΔTm GALC less than 0.1 is shown as D)”. For the compound `CN(CC(=O)N(C)c1cccc(F)c1)Cc1nc2cc(F)ccc2c(=O)[nH]1` [Example 77], the “DSF Activity range” value is “C (ΔTm GALC between 0.1 and 0.5 is shown as C)”. Take `Cc1ccc2nc(CN(CC(=O)N(C)c3ccccc3Cl)C3CC3)[nH]c(=O)c2c1` [Example 78, 2-(N-cyclopropyl-N-((3,4-dihydro-6-methyl-4-oxoquinazolin-2-yl)methyl)amino)-N-(2-chlorophenyl)-N-methylacetamide]: the “DSF Activity range” value was “D (ΔTm GALC less than 0.1 is shown as D)”. On to `CCN(CC(=O)N(C)c1ccccc1Cl)Cc1nc2ccc(C)cc2c(=O)[nH]1` [Example 79], for which the “DSF Activity range” value is “C (ΔTm GALC between 0.1 and 0.5 is shown as C)”. The same measure for `CCCN(CC(=O)N(C)c1ccccc1Cl)Cc1nc2ccc(C)cc2c(=O)[nH]1` [Example 80]: “B (ΔTm GALC between 0.5 and 1 is shown as B)”; for `Cc1ccc2nc(CN(C)CC(=O)N3CCc4ccccc43)[nH]c(=O)c2c1` [Example 81]: “C (ΔTm GALC between 0.1 and 0.5 is shown as C)”. On to `Cc1ccc2nc(CN(C)CC(=O)N(C)c3cccc(F)c3)[nH]c(=O)c2c1` [Example 82], for which the “DSF Activity range” value was “B (ΔTm GALC between 0.5 and 1 is shown as B)”. `Cc1ccc2c(=O)[nH]c(CN(CC(=O)N(C)c3ccccc3Cl)C3CC3)nc2c1` [Example 83]: the “DSF Activity range” value is listed as “D (ΔTm GALC less than 0.1 is shown as D)”. As to `CCN(CC(=O)N(C)c1ccccc1Cl)Cc1nc2cc(C)ccc2c(=O)[nH]1` [Example 84], the “DSF Activity range” value was “C (ΔTm GALC between 0.1 and 0.5 is shown as C)”.

Regarding `CCCN(CC(=O)N(C)c1ccccc1Cl)Cc1nc2cc(C)ccc2c(=O)[nH]1` [Example 85], the “DSF Activity range” value is “B (ΔTm GALC between 0.5 and 1 is shown as B)”. In the case of `Cc1ccc2c(=O)[nH]c(CN(C)CC(=O)N3CCc4ccccc43)nc2c1` [Example 86], the “DSF Activity range” value is on record as “D (ΔTm GALC less than 0.1 is shown as D)”. For the compound `Cc1ccc2c(=O)[nH]c(CN(C)CC(=O)N(C)c3cccc(F)c3)nc2c1` [Example 87, 2-(N-((3,4-dihydro-7-methyl-4-oxoquinazolin-2-yl)methyl)-N-methylamino)-N-(3-fluorophenyl)-N-methylacetamide], the “DSF Activity range” value is “D (ΔTm GALC less than 0.1 is shown as D)”.

`Cc1ccc2c(=O)[nH]c(CN(C)CC(=O)N(C)c3ccc(Cl)c(Cl)c3)nc2c1` [Example 88, 2-(N-((3,4-dihydro-7-methyl-4-oxoquinazolin-2-yl)methyl)-N-methylamino)-N-(3,4-dichlorophenyl)-N-methylacetamide]: the “DSF Activity range” value is “B (ΔTm GALC between 0.5 and 1 is shown as B)”.

On to `Cc1ccc2nc(CN(C)CC(=O)N(C)c3ccc(Cl)c(Cl)c3)[nH]c(=O)c2c1` [Example 89, 2-(N-((3,4-dihydro-6-methyl-4-oxoquinazolin-2-yl)methyl)-N-methylamino)-N-(3,4-dichlorophenyl)-N-methylacetamide], for which the “DSF Activity range” value was “B (ΔTm GALC between 0.5 and 1 is shown as B)”. Consider `CN(CC(=O)N1Cc2ccccc2C1)Cc1nc2c(cnn2C)c(=O)[nH]1` [Example 90], for which the “DSF Activity range” value was “C (ΔTm GALC between 0.1 and 0.5 is shown as C)”. Take `CN(CC(=O)N1CCc2ccccc21)Cc1nc2c(cnn2C)c(=O)[nH]1` [Example 91]: the “DSF Activity range” value was “B (ΔTm GALC between 0.5 and 1 is shown as B)”. The same measure for `CN(CC(=O)N(C)c1ccccc1Cl)Cc1nc2c(cnn2C)c(=O)[nH]1` [Example 92]: “B (ΔTm GALC between 0.5 and 1 is shown as B)”.

On to `CCN(CC(=O)N(C)c1c(Cl)cccc1Cl)Cc1nc2c(cnn2C)c(=O)[nH]1` [Example 93, 2-(N-ethyl-N-((4,5-dihydro-l-methyl-4-oxo-1H-pyrazolo[3,4-d]pylimidin-6-yl)methyl)amino)-N-(2,6-dichlorophenyl)-N-methylacetamide], for which the “DSF Activity range” value was “C (ΔTm GALC between 0.1 and 0.5 is shown as C)”. Take `CN(CC(=O)N(C)c1cccc(F)c1)Cc1nc2c(cnn2C)c(=O)[nH]1` [Example 94]: the “DSF Activity range” value was “B (ΔTm GALC between 0.5 and 1 is shown as B)”.
